Results as given in PMC9259562 (Scientific Reports, 2022).
Square brackets hold non-standard residues; d marks the D form. Peptide text beside a SMILES is read from it. βAla = NCCC(=O)O

Columns and labels:
[1] = test system: Stx2a cytotoxicity in Vero cells; settings: 72 h
[2] = molecular target: Stx2a A-subunit (Escherichia phage 933W, UniProt P09385); test: biochemical; assay type: binding, Escherichia coli
Sequence of Stx2a A-subunit (P09385 23-319 limits assumed): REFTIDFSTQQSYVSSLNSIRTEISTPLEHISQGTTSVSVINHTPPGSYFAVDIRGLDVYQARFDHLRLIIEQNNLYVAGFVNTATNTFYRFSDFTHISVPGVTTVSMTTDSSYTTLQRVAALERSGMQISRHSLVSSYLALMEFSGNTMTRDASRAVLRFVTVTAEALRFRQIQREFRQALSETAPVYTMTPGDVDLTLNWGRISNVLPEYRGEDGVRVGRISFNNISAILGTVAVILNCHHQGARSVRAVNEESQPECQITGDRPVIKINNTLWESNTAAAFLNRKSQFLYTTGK

Compound	IC50 [1] [µM]	IC50 [2] [µM]
C[C@H](NC(=O)[C@H](CCCNC(=N)N)NC(=O)[C@H](CCCNC(=N)N)NC(=O)[C@H](CCCNC(=N)N)NC(=O)[C@@H](N)CCCNC(=N)N)C(N)=O [R4A-mono] (H-RRRRA-NH2)	56.8 ± 2.8	–
N=C(N)NCCC[C@H](NC(=O)[C@H](CCCNC(=N)N)NC(=O)[C@H](CCCNC(=N)N)NC(=O)[C@@H](N)CCCNC(=N)N)C(N)=O [R4-mono] (H-RRRR-NH2)	55.4 ± 8.9	0.387
C[C@H](NC(=O)[C@H](CCCNC(=N)N)NC(=O)[C@@H](N)CCCNC(=N)N)C(N)=O [R2A-mono] (H-Arg-Arg-Ala-NH2)	66 ± 17	132
CSCC[C@H](NC(=O)[C@H](C)NC(=O)[C@@H](N)CCSC)C(=O)N[C@@H](CCSC)C(=O)NCCC(=O)N[C@@H](CCCNC(=N)N)C(=O)N[C@@H](CCCNC(=N)N)C(=O)N[C@@H](CCCNC(=N)N)C(=O)N[C@@H](CCCNC(=N)N)C(=O)N[C@@H](C)C(N)=O [MMβA-mono, reference compound] (H-MAMM[βAla]RRRRA-NH2)	21 ± 4	–
N=C(N)NCCC[C@H](NC(=O)[C@H](CCCNC(=N)N)NC(=O)[C@@H](N)CCCNC(=N)N)C(N)=O [R3-mono] (H-Arg-Arg-Arg-NH2)	78.7 ± 4.7	3.68
C[C@H](NC(=O)[C@H](CCCNC(=N)N)NC(=O)[C@H](CCCNC(=N)N)NC(=O)[C@@H](N)CCCNC(=N)N)C(N)=O [R3A-mono] (H-RRRA-NH2)	52.1 ± 3.5	89.6
C[C@H](N)C(=O)N[C@@H](CCCNC(=N)N)C(=O)N[C@@H](CCCNC(=N)N)C(=O)N[C@@H](CCCNC(=N)N)C(=O)N[C@@H](CCCNC(=N)N)C(=O)N[C@@H](C)C(N)=O [AR4A-mono] (H-ARRRRA-NH2)	51.6 ± 2.2	2.27
